Results published in US9938269B2, “Inhibitor compounds of phosphodiesterase type 10A” (ABBVIE INC., priority 2011, dated 2018).
pIC50: −log10 of the molar value. Where a name gives a salt, the structure may show the parent alone.

target: T1, PDE10A (human) (Homo sapiens, UniProt Q9Y233); assay: Measurement of PDE activity (HTRF cAMP kit), human PDE10A; type: biochemical; settings: PDE enzymatic reaction, substrate 20 nM for PDE10, 60 minutes at 29 C
T1 construct: purchased BPS Bioscience
In short: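 HTRF detection of cAMP left after hydrolysis, expressed as percent of uninhibited control to derive IC50. Reaction: serially diluted inhibitor mixed with recombinant enzyme, started with 20 nM cAMP, 60 min at 29 °C in Tris-HCl pH 7.5 buffer containing MgCl2 and BSA.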

T1 sequence (Q9Y233 whole entry): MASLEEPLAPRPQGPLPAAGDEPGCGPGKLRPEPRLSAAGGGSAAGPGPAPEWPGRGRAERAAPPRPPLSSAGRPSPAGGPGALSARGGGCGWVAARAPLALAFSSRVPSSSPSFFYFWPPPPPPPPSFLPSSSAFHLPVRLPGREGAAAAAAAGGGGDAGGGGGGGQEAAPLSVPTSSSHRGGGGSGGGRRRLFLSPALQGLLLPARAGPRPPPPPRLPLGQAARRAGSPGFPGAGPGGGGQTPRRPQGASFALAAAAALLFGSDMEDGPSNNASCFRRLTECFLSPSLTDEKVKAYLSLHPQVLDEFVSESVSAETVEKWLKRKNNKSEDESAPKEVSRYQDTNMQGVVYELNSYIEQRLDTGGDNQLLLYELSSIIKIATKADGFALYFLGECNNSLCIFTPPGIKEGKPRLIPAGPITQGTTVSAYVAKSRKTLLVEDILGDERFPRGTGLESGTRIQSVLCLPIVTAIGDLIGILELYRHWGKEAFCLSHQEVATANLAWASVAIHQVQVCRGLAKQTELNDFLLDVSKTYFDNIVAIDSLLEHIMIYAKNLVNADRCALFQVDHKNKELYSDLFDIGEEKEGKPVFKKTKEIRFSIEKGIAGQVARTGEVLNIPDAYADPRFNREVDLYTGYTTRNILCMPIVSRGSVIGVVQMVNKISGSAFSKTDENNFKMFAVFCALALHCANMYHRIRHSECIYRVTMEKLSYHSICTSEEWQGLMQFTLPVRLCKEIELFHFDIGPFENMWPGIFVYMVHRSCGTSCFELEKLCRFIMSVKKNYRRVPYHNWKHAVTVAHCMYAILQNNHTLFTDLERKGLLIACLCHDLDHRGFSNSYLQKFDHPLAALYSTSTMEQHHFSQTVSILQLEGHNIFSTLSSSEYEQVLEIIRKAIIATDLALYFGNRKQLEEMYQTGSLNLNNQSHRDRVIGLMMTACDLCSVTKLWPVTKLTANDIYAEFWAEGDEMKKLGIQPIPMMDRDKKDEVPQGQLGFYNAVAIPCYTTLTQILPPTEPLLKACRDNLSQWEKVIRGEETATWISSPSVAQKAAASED

pIC50 | Compound
6.30 to 6.70 | O=C1c2c(cccc2-c2ccncc2)CN1CCc1cccc(-c2ncccn2)c1 [Example 121, 7-(Pyridin-4-yl)-2-(3-(pyrimidin-2-yl)phenethyl)isoindolin-1-one]
6.70 to 7.00 | O=C1c2c(cccc2-c2ccn[nH]2)CN1CCc1ccc2sccc2n1 [Example 560, 7-(1H-Pyrazol-5-yl)-2-(2-thieno[3,2-b]pyridin-5-ylethyl)isoindolin-1-one]
> 7.00 | Cn1nccc1-c1ccc(F)c2c1C(=O)N(CCc1ccc3ccccc3n1)C2 [compound 439, 4-Fluoro-7-(2-methylpyrazol-3-yl)-2-[2-(2-quinolyl)ethyl]isoindolin-1-one]
> 7.00 | Cc1ccc2nc(CCN3Cc4nccc(-c5ccncc5)c4C3=O)ccc2c1 [compound 406, 6-[2-(6-Methyl-2-quinolyl)ethyl]-4-(4-pyridyl)-7H-pyrrolo[3,4-b]pyridin-5-one]
6.30 to 6.70 | O=C1c2cccc(N3CCNCC3)c2CN1CCc1ccc2ccccc2n1 [Example 141, 4-piperazin-1-yl-2-(2-quinolin-2-yl-ethyl)-2,3-dihydro-isoindol-1-one]
> 7.00 | O=C1c2c(cccc2-c2cn[nH]c2)CN1CCc1ccc2ccccc2n1 [Example 78, 7-(1H-Pyrazol-4-yl)-2-(2-quinolin-2-yl-ethyl)-2,3-dihydro-isoindol-1-one]
> 7.00 | O=C1c2c(cccc2-c2ccc3cc[nH]c3c2)CN1CCc1ccc2ccccc2n1 [Example 64, 7-(1H-Indol-6-yl)-2-(2-quinolin-2-yl-ethyl)-2,3-dihydro-isoindol-1-one]
6.30 to 6.70 | Cc1ccsc1-c1cccc2c1CN(CCc1ccc3ccccc3n1)C2=O [Example 351, 4-(3-Methyl-thiophen-2-yl)-2-(2-quinolin-2-yl-ethyl)-2,3-dihydro-isoindol-1-one]
> 7.00 | Cc1ncc(-c2cccc3c2CN(CCc2ccc4ccccc4n2)C3=O)s1 [Example 342, 4-(2-Methyl-thiazol-5-yl)-2-(2-quinolin-2-yl-ethyl)-2,3-dihydro-isoindol-1-one]
> 7.00 | O=C1c2c(-c3cncnc3)ccc(F)c2CN1CCc1ccc2ccccc2n1 [compound 443, 4-Fluoro-7-pyrimidin-5-yl-2-[2-(2-quinolyl)ethyl]isoindolin-1-one trifluoroacetate]
> 7.00 | O=C1c2cccc(-c3cncnc3)c2CN1CCc1ccc2ccccc2n1 [Example 208, 4-Pyrimidin-5-yl-2-(2-quinolin-2-yl-ethyl)-2,3-dihydro-isoindol-1-one]
> 7.00 | O=C1c2cccc(-c3cscn3)c2CN1CCc1ccc2ccccc2n1 [Example 355, 2-(2-Quinolin-2-yl-ethyl)-4-thiazol-4-yl-2,3-dihydro-isoindol-1-one]
> 7.00 | O=C1c2c(cccc2-c2ccc3cn[nH]c3c2)CN1CCc1cn2ccccc2n1 [Example 243, 2-(2-Imidazo[1,2-a]pyridin-2-yl-ethyl)-7-(1H-indazol-6-yl)-2,3-dihydro-isoindol-1-one]
> 7.00 | COc1ccc(-c2cccc3c2CN(CCc2ccc4ccccc4n2)C3=O)cc1 [Example 203, 4-(4-Methoxy-phenyl)-2-(2-quinolin-2-yl-ethyl)-2,3-dihydro-isoindol-1-one trifluoroacetate]
> 7.00 | O=C1c2c(cccc2N2CCSCC2)CN1CCc1ccc2ccccc2n1 [Example 150, 2-(2-Quinolin-2-yl-ethyl)-7-thiomorpholin-4-yl-2,3-dihydro-isoindol-1-one]
6.30 to 6.70 | O=C1c2c(cccc2-c2cccc(F)c2F)CN1CCc1ccc2ccccc2n1 [Example 50, 7-(2,3-Difluoro-phenyl)-2-(2-quinolin-2-yl-ethyl)-2,3-dihydro-isoindol-1-one]

pIC50 | Compound
6.70 to 7.00 | COc1ccc(-c2ccc(F)c3c2C(=O)N(CCc2ccc4ccccc4n2)C3)cc1 [compound 441, 4-Fluoro-7-(4-methoxyphenyl)-2-[2-(2-quinolyl)ethyl]isoindolin-1-one]
6.30 to 6.70 | CN1CCC(N2CCN(c3cccc4c3C(=O)N(CCc3ccc5ccccc5n3)C4)CC2)CC1 [Example 105, 7-[4-(1-Methyl-piperidin-4-yl)-piperazin-1-yl]-2-(2-quinolin-2-yl-ethyl)-2,3-dihydro-isoindol-1-one]
> 7.00 | COc1ccc(-c2ccnc3c2CN(CCc2ccc4ccccc4n2)C3=O)cc1 [compound 458, 4-(4-Methoxy-phenyl)-6-(2-quinolin-2-yl-ethyl)-5,6-dihydro-pyrrolo[3,4-b]pyridin-7-one trifluoroacetate]
> 7.00 | Cc1cc(-c2cccc3c2C(=O)N(CCc2ccc4ccccc4n2)C3)ccn1 [Example 65, 7-(2-Methyl-pyridin-4-yl)-2-(2-quinolin-2-yl-ethyl)-2,3-dihydro-isoindol-1-one]
> 7.00 | O=C1c2c(-c3cc[nH]n3)ccnc2CN1CCc1ccc2ccccc2n1 [Example 323, 4-(1H-Pyrazol-3-yl)-6-(2-quinolin-2-yl-ethyl)-6,7-dihydro-pyrrolo[3,4-b]pyridin-5-one]
6.70 to 7.00 | CC(C)n1c(CCN2Cc3cccc(-c4ccncc4)c3C2=O)nc2ccccc21 [Example 303, 2-[2-(1-Isopropyl-1H-benzoimidazol-2-yl)-ethyl]-7-pyridin-4-yl-2,3-dihydro-isoindol-1-one trifluoroacetate]
> 7.00 | O=C1c2c(cccc2-c2ccncc2)CN1CCc1ccc2ccccc2n1 [Example 5, 7-Pyridin-4-yl-2-(2-quinolin-2-yl-ethyl)-2,3-dihydro-isoindol-1-one]
6.70 to 7.00 | O=C1c2c(cccc2N2CCOCC2)CN1CCc1cc(Cl)c2ccccc2n1 [Example 117, 2-[2-(4-Chloro-quinolin-2-yl)-ethyl]-7-morpholin-4-yl-2,3-dihydro-isoindol-1-one trifluoroacetate]
> 7.00 | O=C1c2cccc(OCc3ccncc3)c2C(=O)N1CCc1ccc2ccccc2n1 [Example 247, 4-(Pyridin-4-ylmethoxy)-2-(2-quinolin-2-yl-ethyl)-isoindole-1,3-dione]
> 7.00 | O=C1c2c(-c3ccncc3)ccc(OCF)c2CN1CCc1ccc2ccccc2n1 [Example 299, 4-Fluoromethoxy-7-pyridin-4-yl-2-(2-quinolin-2-yl-ethyl)-2,3-dihydro-isoindol-1-one]
> 7.00 | O=C1c2c(-c3ccsc3)ccnc2CN1CCc1ccc2ccccc2n1 [Example 330, 6-(2-Quinolin-2-yl-ethyl)-4-thiophen-3-yl-6,7-dihydro-pyrrolo[3,4-b]pyridin-5-one]
6.30 to 6.70 | COc1cc(-c2cccc3c2C(=O)N(CCc2ccc4ccccc4n2)C3)ccn1 [Example 182, 7-(2-Methoxy-pyridin-4-yl)-2-(2-quinolin-2-yl-ethyl)-2,3-dihydro-isoindol-1-one trifluoroacetate]
> 7.00 | O=C1c2c(-c3ccncc3)ccnc2CN1CCc1cn2ccsc2n1 [compound 423, 6-(2-Imidazo[2,1-b]thiazol-6-ylethyl)-4-(4-pyridyl)-7H-pyrrolo[3,4-b]pyridin-5-one trifluoroacetate]
> 7.00 | O=C1c2c(N3CCC(CF)C3)ccnc2CN1CCc1ccc2ccccc2n1 (stereo not drawn) [compound 435, 4-[3-(Fluoromethyl)pyrrolidin-1-yl]-6-[2-(2-quinolyl)ethyl]-7H-pyrrolo[3,4-b]pyridin-5-one]
6.30 to 6.70 | Cn1c(CCN2Cc3cccc(-c4ccc(F)cc4)c3C2=O)nc2ccccc21 [Example 211, 7-(4-Fluoro-phenyl)-2-[2-(1-methyl-1H-benzoimidazol-2-yl)-ethyl]-2,3-dihydro-isoindol-1-one trifluoroacetate]

test system: not listed separately; assay: Determination of the microsomal half-life, human liver microsomes; settings: human, liver microsomes, pH 7.4

microsomal CLint at 0.5 μM [µL/min/mg] | Compound
> 220 | O=C1c2c(cccc2OCc2ccncc2)CN1CCc1ccc2ccccc2n1 [Example 128, 7-(Pyridin-4-ylmethoxy)-2-(2-quinolin-2-yl-ethyl)-2,3-dihydro-isoindol-1-one]
< 100 | CN1CC2CN(c3cccc4c3C(=O)N(CCc3ccc5ccccc5n3)C4)CC2C1 (stereo not drawn) [Example 154, 7-(5-Methyl-hexahydro-pyrrolo[3,4-c]pyrrol-2-yl)-2-(2-quinolin-2-yl-ethyl)-2,3-dihydro-isoindol-1-one]
100 to 220 | O=C1c2c(cccc2N2C[C@H]3CCCNC[C@H]3C2)CN1CCc1ccc2ccccc2n1 [Example 318, 7-(3aS,8aS)-Octahydro-pyrrolo[3,4-c]azepin-2-yl-2-(2-quinolin-2-yl-ethyl)-2,3-dihydro-isoindol-1-one trifluoroacetate]
100 to 220 | O=C1c2cccc(-c3ccncc3)c2C(=O)N1CCc1ccc2ccccc2n1 [Example 249, 4-Pyridin-4-yl-2-(2-quinolin-2-yl-ethyl)-isoindole-1,3-dione dihydrochloride]
100 to 220 | O=C1c2c(cccc2N2CC[C@@H]3NCC[C@@H]3C2)CN1CCc1ccc2ccccc2n1 [Example 220, 7-(3aR,7aS)-Octahydro-pyrrolo[3,2-c]pyridin-5-yl-2-(2-quinolin-2-yl-ethyl)-2,3-dihydro-isoindol-1-one trifluoroacetate]
< 100 | Cn1nccc1-c1ccnc2c1C(=O)N(CCc1nc3ccccn3n1)C2 [Example 213, 4-(2-Methyl-2H-pyrazol-3-yl)-6-(2-[1,2,4]triazolo[1,5-a]pyridin-2-yl-ethyl)-6,7-dihydro-pyrrolo[3,4-b]pyridin-5-one trifluoroacetate]
100 to 220 | O=C1c2c(cccc2-c2ccncc2)CN1CCc1cccc(-c2ncccn2)c1 [Example 121, 7-(Pyridin-4-yl)-2-(3-(pyrimidin-2-yl)phenethyl)isoindolin-1-one]

test system: not listed separately; assay: Determination of the microsomal half-life, rat liver microsomes; settings: rat liver microsomes, 0.5 μM test substance, 0.25 mg microsomal protein, pH 7.4, 37° C., NADPH

Rat mCl (mikrosomal clearance) | Compound
−∘ | CN1CC2CN(c3cccc4c3C(=O)N(CCc3ccc5ccccc5n3)C4)CC2C1 (stereo not drawn) [Example 154, 7-(5-Methyl-hexahydro-pyrrolo[3,4-c]pyrrol-2-yl)-2-(2-quinolin-2-yl-ethyl)-2,3-dihydro-isoindol-1-one]

same assay, conditions: rat, liver microsomes, pH 7.4

microsomal CLint at 0.5 μM [µL/min/mg] | Compound
100 to 220 | O=C1c2c(cccc2OCc2ccncc2)CN1CCc1ccc2ccccc2n1 [Example 128, 7-(Pyridin-4-ylmethoxy)-2-(2-quinolin-2-yl-ethyl)-2,3-dihydro-isoindol-1-one]
> 220 | O=C1c2c(cccc2N2C[C@H]3CCCNC[C@H]3C2)CN1CCc1ccc2ccccc2n1 [Example 318, 7-(3aS,8aS)-Octahydro-pyrrolo[3,4-c]azepin-2-yl-2-(2-quinolin-2-yl-ethyl)-2,3-dihydro-isoindol-1-one trifluoroacetate]
> 220 | O=C1c2cccc(-c3ccncc3)c2C(=O)N1CCc1ccc2ccccc2n1 [Example 249, 4-Pyridin-4-yl-2-(2-quinolin-2-yl-ethyl)-isoindole-1,3-dione dihydrochloride]
> 220 | O=C1c2c(cccc2N2CC[C@@H]3NCC[C@@H]3C2)CN1CCc1ccc2ccccc2n1 [Example 220, 7-(3aR,7aS)-Octahydro-pyrrolo[3,2-c]pyridin-5-yl-2-(2-quinolin-2-yl-ethyl)-2,3-dihydro-isoindol-1-one trifluoroacetate]
< 100 | Cn1nccc1-c1ccnc2c1C(=O)N(CCc1nc3ccccn3n1)C2 [Example 213, 4-(2-Methyl-2H-pyrazol-3-yl)-6-(2-[1,2,4]triazolo[1,5-a]pyridin-2-yl-ethyl)-6,7-dihydro-pyrrolo[3,4-b]pyridin-5-one trifluoroacetate]
100 to 220 | O=C1c2c(N3CCOCC3)ccnc2CN1CCc1cc2ccccc2o1 [compound 397, 6-[2-(Benzofuran-2-yl)ethyl]-4-morpholino-7H-pyrrolo[3,4-b]pyridin-5-one]
